Laboratory results as given in a compilation of properties of binary mixtures (doi:10.1021/acs.jpcb.7b01654).

Assay: xn = mol fraction of the nth substance listed
Conditions: 100 kPa

CC[n+]1ccn(C)c1.O=S(=O)([N-]S(=O)(=O)C(F)(F)F)C(F)(F)F + CCCCCCCCCCCC[n+]1ccn(C)c1.O=S(=O)([N-]S(=O)(=O)C(F)(F)F)C(F)(F)F
x2 = 0
Conditions | viscosity [mPa·s]
283 K | 56.8
288 K | 44.6
298 K | 29.7
303 K | 24.8
308 K | 21
318 K | 15.57
323 K | 13.28

CCCCCCCCCCCC[n+]1ccn(C)c1.O=S(=O)([N-]S(=O)(=O)C(F)(F)F)C(F)(F)F + CC[n+]1ccn(C)c1.O=S(=O)([N-]S(=O)(=O)C(F)(F)F)C(F)(F)F
viscosity [mPa·s]
Conditions | 293 K | 298 K | 303 K | 308 K | 313 K | 318 K | 323 K | 328 K | 333 K
x1 = 0.01 | 36.2 | 29.4 | 24.3 | 20.5 | 17.6 | 15.26 | 13.19 | 11.69 | 10.4
x1 = 0.04 | 37.9 | 30.8 | 25.5 | 21.5 | 18.4 | 15.96 | 13.82 | – | 10.81
x1 = 0.08 | 41.4 | 33.5 | 27.6 | 23.2 | 19.8 | 17 | – | 12.89 | 11.37
x1 = 0.16 | 47.6 | – | – | 26.1 | 22.1 | 19 | 16 | 14.06 | –
x1 = 0.24 | 57.4 | 45.7 | – | 30.7 | 25.7 | 21.9 | 18.6 | 16.17 | 14.13
x1 = 0.32 | 69.1 | 54.2 | 43.6 | 35.6 | 29.6 | 24.8 | – | 18 | 15.5
x1 = 0.43 | 85.1 | 66 | 52.4 | 42.4 | 34.8 | 28.9 | 23.8 | 20.4 | 17.6
x1 = 0.52 | 94.7 | 73.2 | 57.7 | 46.6 | 38.3 | 31.7 | 26.1 | 22.2 | 19.1
x1 = 0.63 | 116 | 88.7 | 69.3 | 55.3 | 44.8 | 36.9 | 30.3 | 25.5 | 21.7
x1 = 0.74 | 137 | 104 | 80.6 | – | 51.3 | 42 | – | 28.7 | 24.1
x1 = 0.87 | 158 | 119 | 91.7 | 71.9 | 57.4 | 46.5 | 37.4 | 31.1 | 26.1
x1 = 0.92 | 182 | 135 | 102 | 79 | 62.1 | 49.8 | 40.2 | 33 | –
x1 = 0.96 | – | 149 | 114 | – | – | 56.2 | 45.5 | 37.4 | 31.2
x1 = 1 | 193 | 143 | – | 84 | 66.2 | 53 | 42.65 | 34.9 | 28.87
x2 = 0.01 | 199 | 149 | 113 | 88.4 | 70 | 56.3 | – | 37.5 | 31.3
